Assay results taken from US11795199B2, “Peptide targeting Mycobacterium tuberculosis toxin-antitoxin system and use thereof” (Seoul National University R&DB Foundation, priority 2017, dated 2023).

Target: VapBC26 protein complex (Mycobacterium tuberculosis, UniProt O53778)
Sequence (O53778 whole entry, one chain of several): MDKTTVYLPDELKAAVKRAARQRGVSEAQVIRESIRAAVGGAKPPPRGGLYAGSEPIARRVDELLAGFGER

Row | Sequence | concentration of VapBC26 from which the results of RFU were similar | inhibition of VapBC26 toxin-antitoxin complex formation (binding inhibitor, seen as increased ribonuclease activity) | ribonuclease activity of VapBC26 compared with addition of SEQ. ID. NO: 11 and SEQ. ID. NO: 13 peptides
1 | DAELAVLRELAG [mimetic peptide for VapC26 α4] | ≥ 10 µM | acted as a VapBC26 binding inhibitor | more increased
2 | YLVATRVGVDAELAV | – | acted as a VapBC26 binding inhibitor | –
3 | PYVVAELDYLVATRVG [mimetic peptide for VapC26 α3] | – | acted as a VapBC26 binding inhibitor | –
